The first assay concerns the target T1, GlyT1 (Homo sapiens, UniProt P48067).
T1 construct: Human placental choriocarcinoma cells endogenously expressing GlyT1; host or cells: JAR human placental choriocarcinoma cells
T1 sequence (P48067 1-706): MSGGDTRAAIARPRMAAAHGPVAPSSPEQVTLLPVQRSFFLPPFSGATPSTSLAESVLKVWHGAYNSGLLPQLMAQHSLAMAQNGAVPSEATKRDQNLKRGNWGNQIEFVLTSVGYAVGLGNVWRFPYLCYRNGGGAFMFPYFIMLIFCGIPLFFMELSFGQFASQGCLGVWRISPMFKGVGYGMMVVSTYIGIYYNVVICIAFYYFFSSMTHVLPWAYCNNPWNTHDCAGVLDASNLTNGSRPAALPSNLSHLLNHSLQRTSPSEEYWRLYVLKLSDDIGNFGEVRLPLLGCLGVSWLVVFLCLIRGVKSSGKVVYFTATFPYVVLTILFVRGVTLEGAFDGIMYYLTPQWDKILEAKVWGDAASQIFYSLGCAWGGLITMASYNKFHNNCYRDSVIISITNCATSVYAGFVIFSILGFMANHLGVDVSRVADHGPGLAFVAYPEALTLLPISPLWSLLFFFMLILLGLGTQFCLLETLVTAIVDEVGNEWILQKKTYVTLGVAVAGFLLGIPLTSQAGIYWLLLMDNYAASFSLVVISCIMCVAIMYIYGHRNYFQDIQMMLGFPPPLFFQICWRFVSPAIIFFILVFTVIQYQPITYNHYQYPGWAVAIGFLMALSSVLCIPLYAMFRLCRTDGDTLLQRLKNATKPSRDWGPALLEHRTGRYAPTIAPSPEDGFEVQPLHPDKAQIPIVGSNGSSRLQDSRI
In words: [14C]-glycine uptake in JAR cells endogenously expressing GlyT1 (scintillation proximity assay). It is filed as cell-based. As to conditions: 10 μM [14C]-glycine, 3 h, read-out: Potency. An excerpt: The procedure used was analogous to that disclosed in Williams, J. B.; Mallorga P. J.; Lemaire W.; Williams D. L.; Na S.; Patel S.; Conn J. P.; Pettibone D. J.; Austin C.; Sur C.; “Development of a scintillation proximity assay for analysis of Na+/Cl−-dependent neurotransmitter transporter activity,” ANAL. BIOCHEM. 2003 Oct. 1; 321(1):31-7.
Human placental choriocarcinoma cells (JAR cells, ATCC No. HTB-144) were obtained from the American Type Culture Collection (Manassas, Va.). JAR cells were cultured in 96-well Cytostar T plates (GE Healthcare No. RPNQ0162) in RPMI 1640 medium (Sigma-Aldrich) containing 10% fetal bovine serum, 10 mM HEPES, 1 mM sodium pyruvate, penicillin (100 μg/ml), and streptomycin (100 μg/ml). Cells were plated at a density of 1.3×10^4 cells/well and grown at 37° C. in a humidified atmosphere of 5% CO2 for 40-48 h. Culture medium was removed from the Cytostar T plate and JAR cells were incubated with 30 μl of TB1A buffer (120 mM NaCl, 2 mM KCl, 1 mM CaCl2, 1 mM MgCl2, 10 mM Hepes, 5 mM L-alanine, pH 7.5 adjusted with 1 M Tris base) with or without multiple concentrations of test compound (added at 2× final concentration) for 1 min. Then 30 μl of [^14C]-glycine (Perkin-Elmer) diluted in TB1A was added to each well to give a final concentration of 10 μM. Cytostar T plates were then incubated in the dark at room temperature for 3 h, sealed with opaque white bottom plate seals (Perkin-Elmer) and clear top plate seals (Topseal A, Perkin-Elmer), and were counted on a Top Count (Packard). Glycine uptake was determined by measuring radioactivity in each well and plotted as a function of concentration of test compound. […] Nonspecific uptake of [^14C]-glycine was determined in the presence of 10 mM cold glycine. [^14C]-taurine (American Radiolabeled Chemicals, Inc.) uptake experiments were performed according to the same protocol except that 10 mM cold taurine was used to determine nonspecific uptake. For GlyT2 assays, COS-7 (ATCC No. CRL-1651) cells were utilized. COS-7 cells were transiently transfected with the human GlyT2 cDNA (Origene Technologies Inc., SC303452) using Fugene 6 (Roche) according to the manufacturer's instructions in Dulbecco's modified Eagle's medium (DMEM, Invitrogen) containing 10% Fetal Bovine Serum, 10 mM HEPES, 1 mM sodium pyruvate, penicillin (100 μg/ml), and streptomycin (100 μg/ml). The following day, the cells were plated at a density of 5×10^5 cells/well in Cytostar T plates and maintained at 37° C. in a humidified atmosphere of 5% CO2 for 24 h. GlyT2 glycine uptake experiments were performed according to the same protocol previously described.
On the technique in general: Scintillation proximity formats need no separation of bound from free tracer.
Consider `Cn1cnc(S(=O)(=O)N2CCC3(CC2)c2ccccc2CC3NC(=O)c2ccc(Cl)cc2Cl)c1` (centres unmarked) [Compound 7a], for which the IC50 worked out at 3500 nM.

Consider `CCCS(=O)(=O)N1CCC2(CC1)c1ccccc1CC2NC(=O)c1ccccc1OC` (centres unmarked) [Compound 5g], for which the IC50 came out at 2700 nM. On the same count and under the same terms, with `CCCS(=O)(=O)N1CCC2(CC1)c1ccccc1CC2NC(=O)c1ccc(Cl)c(Cl)c1` (centres unmarked) [Compound 5c] the figure was 609 nM. Same read-out and setting: with `Cn1cnc(S(=O)(=O)N2CCC3(CC2)c2ccccc2CC3NC(=O)c2ccccc2C(F)(F)F)c1` (centres unmarked) [Compound 4f] the figure was 24 nM; with `CS(=O)(=O)N1CCC2(CC1)c1ccccc1CC2NC(=O)c1ccc(Cl)cc1Cl` (centres unmarked) [Compound 2a], greater than 10000 nM; with `CCCS(=O)(=O)N1CCC2(CC1)c1ccccc1CC2NC(=O)c1ccccc1C(F)(F)F` (centres unmarked) [Compound 5d], 674 nM. With `Cn1cnc(S(=O)(=O)N2CCC3(CC2)c2ccccc2CC3NC(=O)c2ccc(Cl)cc2)c1` (centres unmarked) [Compound 4b], the IC50 turned out to be 15 nM.

For the compound `CCCS(=O)(=O)N1CCC2(CC1)c1ccccc1CC2NC(=O)c1c(F)cccc1F` (centres unmarked) [Compound 5b], the IC50 turned out to be 1160 nM. Still for that read-out and setting: next, `CCS(=O)(=O)N1CCC2(CC1)c1ccccc1CC2NC(=O)c1ccc(Cl)cc1Cl` (centres unmarked) [Compound 2b]: greater than 10000 nM; `CCCS(=O)(=O)N1CCC2(CC1)c1ccccc1CC2NC(=O)c1ccccc1I` (centres unmarked) [Compound 5h]: 266 nM.

In the case of `CCCS(=O)(=O)N1CCC2(CC1)c1ccccc1CC2NC(=O)c1cccc(C(F)(F)F)c1` (centres unmarked) [Compound 5e], the IC50 amounted to 1600 nM. Still for that read-out and setting: with `Cn1cnc(S(=O)(=O)N2CCC3(CC2)c2ccccc2CC3NC(=O)c2ccc(F)cc2F)c1` (centres unmarked) [Compound 4c] the figure was 18 nM. Consider `CCCS(=O)(=O)N1CCC2(CC1)c1ccccc1CC2NC(=O)c1ccc(Cl)cc1Cl` (single isomer, unassigned) [Compound 7c], for which the IC50 worked out at 1300 nM. On the same count and under the same terms, with `O=C(NC1Cc2ccccc2C12CCN(S(=O)(=O)c1cccs1)CC2)c1ccc(Cl)cc1Cl` (centres unmarked) [Compound 2i] the figure was greater than 10000 nM. Still for that read-out and setting: next, `Cn1cnc(S(=O)(=O)N2CCC3(CC2)c2ccccc2CC3NC(=O)c2cccc(C(F)(F)F)c2)c1` (centres unmarked) [Compound 4g]: 310 nM. Same read-out and setting: next, `CCCCS(=O)(=O)N1CCC2(CC1)c1ccccc1CC2NC(=O)c1ccc(Cl)cc1Cl` (centres unmarked) [Compound 2f]: greater than 10000 nM; `Cn1cnc(S(=O)(=O)N2CCC3(CC2)c2ccccc2CC3NC(=O)c2ccc(Cl)c(Cl)c2)c1` (centres unmarked) [Compound 4e]: 53 nM. On to `Cn1cnc(S(=O)(=O)N2CCC3(CC2)c2ccccc2CC3NC(=O)c2ccccc2Cl)c1` (centres unmarked) [Compound 4a], for which the IC50 was 18 nM. Still for that read-out and setting: next, `CCCS(=O)(=O)N1CCC2(CC1)c1ccccc1CC2NC(=O)c1ccc(Cl)cc1` (centres unmarked) [Compound 5a]: 1000 nM; `CCCS(=O)(=O)N1CCC2(CC1)c1ccccc1CC2NC(=O)c1ccc(Cl)cc1Cl` (centres unmarked) [Compound 7d]: 52 nM. Regarding `CCCS(=O)(=O)N1CCC2(CC1)c1ccccc1CC2NC(=O)c1ccc(Cl)cc1Cl` (centres unmarked) [Compound 2c], the IC50 amounted to 450 nM.

Turning to `Cn1cnc(S(=O)(=O)N2CCC3(CC2)c2ccccc2CC3NC(=O)c2c(F)cccc2F)c1` (centres unmarked) [Compound 4d], the IC50 was 10 nM. The same measure, in the same setting: next, `CCCS(=O)(=O)N1CCC2(CC1)c1ccccc1CC2NC(=O)c1ccc(C(F)(F)F)cc1` (centres unmarked) [Compound 5f]: 270 nM.

As for `CC(C)S(=O)(=O)N1CCC2(CC1)c1ccccc1CC2NC(=O)c1ccc(Cl)cc1Cl` (centres unmarked) [Compound 2e], the IC50 is greater than 10000 nM.

For the next assay, the target named is T1, GlyT1. In words: Saturation [14C]-glycine uptake in JAR cells to determine mode of inhibition. It is filed as cell-based. As to conditions: in the presence of 1 nM NFPS; control Km=28.97 μM; read-out: Km of [14C]-glycine transport. On the procedure: To determine the mode of inhibition of GlyT1 inhibitors, a previously published assay for saturation glycine uptake was utilized. Briefly, human placental choriocarcinoma (JAR) cells (ATCC Catalog #HTB-144) were obtained from the American Type Culture Collection (Manassas, Va.). JAR cells were plated at a density of 12,000 cells/well in Cytostar-T 96 well plates (Amersham) in RPMI 1640 Media (Sigma, Catalog #R8758) containing 10 mM HEPES, 1 mM Sodium Pyruvate, 10% fetal bovine serum, 1× Antibiotic/Antimycotic (Invitrogen, Catalog #15240-062), and 4.5 g/L glucose 48 hours prior to the assay. Cell cultures were maintained at 37° C. in an atmosphere of 95% air, 5% CO2. On the day of the assay, culture media was removed, and 30 μL of T1BA buffer (120 mM NaCl, 2 mM KCl, 1 mM CaCl2, 1 mM MgCl2, 10 mM HEPES, 5 mM L-alanine, pH 7.5 using 1M tris base) with or without 2× drug was added to the JAR cells. Plates were incubated for 5 minutes at room temperature, followed by the addition of 30 μL of 2×[^14C]-glycine (111.7 mCi/mmol, obtained from Perkin-Elmer) made up in T1BA Buffer to give final concentrations as indicated. Aliquots of each concentration of [^14C]-glycine were saved in triplicate for direct determination of their concentration via liquid scintillation counting for each assay. Plates were incubated in the dark at room temperature for 3-4 hours and sealed 96-well Cytostar T plates were counted on a Top Count (Perkin-Elmer) with a 1 minute count time per well. Nonspecific uptake was determined in the presence of 10 mM cold glycine. Fixed concentrations of representative compounds and known competitive (ACPPB) and non-competitive inhibitors (NFPS) were included in each assay as comparators.
Data were analyzed by non-linear regression analysis using GraphPad Prism 4.0 (GraphPad, La Jolla, Calif.). Uptake curves were fit to a Michaelis-Menton type equation: V=(Vmax*[S])/(Km+[…]), where V=Velocity in counts per minute (CPM), Vmax=Maximum Velocity in CPM, [S]=Substrate Concentration, and Km is the concentration of substrate to elicit 50% of the Maximal Velocity. Data were additionally plotted as Eadie-Hofstee plots of V versus V/[S] to better visualize the mode of inhibition. […] As an example of the disclosed series of compounds, 9UD was tested side-by-side with known competitive (ACPPB) and non-competitive (NFPS) inhibitors of glycine transport.
For the compound `CN(CCC(Oc1ccc(-c2ccccc2)cc1)c1ccc(F)cc1)CC(=O)O` (centres unmarked) [NFPS, (N-[3-(4′-fluorophenyl)-3-(4′-phenylphenoxy)propyl])sarcosine], the Km (in general, the concentration of substrate that gives half-maximal velocity) stood at 30.7 µM.

Staying with this assay, now noted: in the presence of 1 nM NFPS; control Vmax=16056 CPM.
In the case of `CN(CCC(Oc1ccc(-c2ccccc2)cc1)c1ccc(F)cc1)CC(=O)O` (centres unmarked) [NFPS, (N-[3-(4′-fluorophenyl)-3-(4′-phenylphenoxy)propyl])sarcosine], the “Vmax of [14C]-glycine transport” value came to 9298 CPM.

The same assay, now with this note: in the presence of 5 nM ACPPB; control Vmax=20508 CPM.
In the case of `CCCS(=O)(=O)N1CCC(c2ccccc2)([C@H](C)NC(=O)c2ccc(Cl)cc2N)CC1` [ACPPB], the “Vmax of [14C]-glycine transport” value came to 21592 CPM.

The same assay, now with this note: in the presence of 400 nM 9UD; control Vmax=20495 CPM.
With `CCCCS(=O)(=O)N1CCC2(CC1)c1ccccc1CC2NC(=O)c1ccc(Cl)cc1Cl` (centres unmarked) [Compound 9UD], the “Vmax of [14C]-glycine transport” value was 20699 CPM.

The assay is the same for the next values; noted with them: with respect to glycine; Eadie-Hofstee analysis.
Turning to `CCCS(=O)(=O)N1CCC(c2ccccc2)([C@H](C)NC(=O)c2ccc(Cl)cc2N)CC1` [ACPPB], the “Mode of inhibition of GlyT1 glycine transport” value was “competitive inhibition”. For `CN(CCC(Oc1ccc(-c2ccccc2)cc1)c1ccc(F)cc1)CC(=O)O` (centres unmarked) [NFPS, (N-[3-(4′-fluorophenyl)-3-(4′-phenylphenoxy)propyl])sarcosine], the “Mode of inhibition of GlyT1 glycine transport” value is on record as “non-competitive inhibition”. The same measure, in the same setting: next, `CCCCS(=O)(=O)N1CCC2(CC1)c1ccccc1CC2NC(=O)c1ccc(Cl)cc1Cl` (centres unmarked) [Compound 9UD]: “competitive inhibition”.

The next assay has as its system GlyT1.
Test: not given
The following applies: cited from earlier work.
In the case of `CN(CC[C@@H](Oc1ccc(-c2ccccc2)cc1)c1ccc(F)cc1)CC(=O)O` [(R)-NFPS], the “Duration of increased glycine levels in the prefrontal cortex” value was greater than 24 h.
